Reference: patent US11566007B2, “Ras inhibitors” (Revolution Medicines, Inc., priority 2019, dated 2023)
Several values for one entry are separate records, joined by “and”; a condition that tells them apart may be missing. Equal entries are not always repeated. Where two headings read alike, the source gives them in different places.

Key:
[1] = biological target: KRAS WT (Homo sapiens (Human), UniProt P01116+P62937); test: Ras-Raf (BRAF RBD) disruption / FRET / MOA assay, KRAS WT; format: biochemical; details: read-out: IC50* KRAS WT FRET data
How it was run: (§1)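 TR-FRET read-out: a drop in ratio relative to DMSO wells marks disruption of the Ras:RAF complex, reported as IC50. Compounds (3-fold series, 10 points, top 30 μM final) incubated 3 h at 25° C before Eu-anti-His 10 nM and APC-anti-GST 50 nM, 1.5 h more.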

[2] = biological target: KRAS G12V (Homo sapiens (Human), UniProt P01116+P62937, G12V); test: Ras-Raf (BRAF RBD) disruption / FRET / MOA assay, KRAS G12V; format: biochemical; details: read-out: IC50* KRAS G12V FRET data
How it was run: as §1

[3] = biological target: KRAS G13D (Homo sapiens (Human), UniProt P01116+P62937, G13D); test: Ras-Raf (BRAF RBD) disruption / FRET / MOA assay, KRAS G13D; format: biochemical; details: read-out: IC50* KRAS G13D FRET data
Method: (§2) The purpose of this biochemical assay is to measure the ability of test compounds to facilitate ternary complex formation between a nucleotide-loaded Ras isoform and cyclophilin A; the resulting ternary complex disrupts binding to a BRAF^RBD construct, inhibiting Ras signaling through a RAF effector.
(§3) Compound is present in plate wells as a 10-point 3-fold dilution series starting at a final concentration of 30 μM. After incubation at 25° C. for 3 hours, a mixture of Anti-His Eu-W1024 and anti-GST allophycocyanin is then added to assay sample wells at final concentrations of 10 nM and 50 nM, respectively, and the reaction incubated for an additional 1.5 hours. […] Compounds that facilitate disruption of a Ras:RAF complex are identified as those eliciting a decrease in the TR-FRET ratio relative to DMSO control wells.
This protocol may also be executed substituting other Ras proteins or nucleotides.
The purpose of this biochemical assay was to measure the ability of test compounds to facilitate ternary complex formation between a nucleotide-loaded K-Ras isoform and Cyclophilin A; the resulting ternary complex disrupts binding to a BRAF^RBD construct, inhibiting K-Ras signaling through a RAF effector. Data is reported as IC50 values.
as §3, with “Compound was” for “Compound is”, “allophycocyanin was” for “allophycocyanin is”, “a K-Ras:RAF” for “a Ras:RAF”, “complex were” for “complex are”

[4] = test system: NCI-H358 cells (K-Ras G12C); test: Potency assay: pERK in NCI-H358 cells; format: cell-based, human; details: H358 KRAS G12C, read-out: pERK EC50
How it was run: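 pERK decrease read by AlphaLISA SureFire p-ERK1/2 or In-Cell Western after 4 h compound exposure at 37 °C, 5% CO2.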

[5] = biological target: K-Ras G13C (Homo sapiens (Human), UniProt P01116+P62937, G13C); test: Ras-Raf (BRAF RBD) disruption / FRET / MOA assay, KRAS G13C; format: biochemical; details: KRAS G13C; Ras-Raf disruption/FRET/MOA assay; read-out: IC50* KRAS G13C FRET data
How it was run: as §1

[6] = biological target: KRAS G12D (Homo sapiens (Human), UniProt P01116+P62937, G12D); test: Ras-Raf (BRAF RBD) disruption / FRET / MOA assay, KRAS G12D; format: biochemical; details: Ras-Raf disruption/FRET/MOA assay; class symbols; read-out: KRAS G12D FRET data IC50
How it was run: as §1

[7] = biological target: NRAS G12C (Homo sapiens (Human), UniProt P01111+P62937, G12C); test: Ras-Raf (BRAF RBD) disruption / FRET / MOA assay, NRAS G12C; format: biochemical; details: read-out: IC50* NRAS G12C FRET data
Method: as §2, §3
This protocol may also be executed substituting other Ras proteins or nucleotides. […]

[8] = biological target: KRAS G12S (Homo sapiens (Human), UniProt P01116+P62937, G12S); test: Ras-Raf (BRAF RBD) disruption / FRET / MOA assay, KRAS G12S; format: biochemical; details: Ras-Raf disruption/FRET/MOA assay; class symbols; read-out: KRAS G12S FRET data IC50
How it was run: as §1

[9] = biological target: K-Ras G12C (Homo sapiens (Human), UniProt P01116+P62937, G12C); test: Ras-Raf (BRAF RBD) disruption / FRET / MOA assay, KRAS G12C; format: biochemical; details: KRAS G12C; Ras-Raf disruption/FRET/MOA assay; read-out: IC50* KRAS G12C FRET data
How it was run: as §1

Chain of KRAS WT (P01116-2 other isoform, or with tags, fused parts or gaps): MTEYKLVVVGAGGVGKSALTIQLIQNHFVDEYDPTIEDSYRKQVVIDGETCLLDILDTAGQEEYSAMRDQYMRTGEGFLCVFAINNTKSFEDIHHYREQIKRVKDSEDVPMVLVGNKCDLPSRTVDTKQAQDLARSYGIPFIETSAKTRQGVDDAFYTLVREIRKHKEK
Chain of KRAS WT (P62937 whole entry): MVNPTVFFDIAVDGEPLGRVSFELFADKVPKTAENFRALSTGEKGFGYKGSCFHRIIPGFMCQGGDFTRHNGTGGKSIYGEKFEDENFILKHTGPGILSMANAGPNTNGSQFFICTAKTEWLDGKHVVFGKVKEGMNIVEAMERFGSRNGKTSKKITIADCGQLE
Chain of K-Ras G13C (P01116-2 other isoform, or with tags, fused parts or gaps G13C): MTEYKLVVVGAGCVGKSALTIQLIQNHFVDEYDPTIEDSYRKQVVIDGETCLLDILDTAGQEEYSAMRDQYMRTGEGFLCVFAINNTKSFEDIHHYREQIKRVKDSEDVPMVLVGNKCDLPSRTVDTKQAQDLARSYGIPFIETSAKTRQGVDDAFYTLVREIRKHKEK
Chain of K-Ras G13C (P62937 whole entry): as the sequence (P62937 whole entry) above
Chain of KRAS G12V (P01116-2 other isoform, or with tags, fused parts or gaps G12V): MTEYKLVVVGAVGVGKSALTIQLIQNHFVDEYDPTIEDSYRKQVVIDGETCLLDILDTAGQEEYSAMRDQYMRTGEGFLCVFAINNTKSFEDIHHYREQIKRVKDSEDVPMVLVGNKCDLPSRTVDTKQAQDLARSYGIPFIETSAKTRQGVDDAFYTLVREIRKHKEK
Chain of KRAS G12V (P62937 whole entry): as the sequence (P62937 whole entry) above
Chain of KRAS G12D (P01116-2 other isoform, or with tags, fused parts or gaps G12D): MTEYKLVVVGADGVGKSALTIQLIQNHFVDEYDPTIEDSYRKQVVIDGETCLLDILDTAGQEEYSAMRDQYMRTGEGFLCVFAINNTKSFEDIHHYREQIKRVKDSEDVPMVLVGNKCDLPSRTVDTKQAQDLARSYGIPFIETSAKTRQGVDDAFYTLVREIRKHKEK
Chain of KRAS G12D (P62937 whole entry): as the sequence (P62937 whole entry) above
Chain of K-Ras G12C (P01116-2 other isoform, or with tags, fused parts or gaps G12C): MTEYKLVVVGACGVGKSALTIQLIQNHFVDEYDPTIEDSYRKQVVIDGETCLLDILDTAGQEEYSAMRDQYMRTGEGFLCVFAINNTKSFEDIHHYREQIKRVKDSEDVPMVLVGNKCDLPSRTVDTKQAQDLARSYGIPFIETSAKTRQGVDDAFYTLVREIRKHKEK
Chain of K-Ras G12C (P62937 whole entry): as the sequence (P62937 whole entry) above
Chain of KRAS G12S (P01116-2 other isoform, or with tags, fused parts or gaps G12S): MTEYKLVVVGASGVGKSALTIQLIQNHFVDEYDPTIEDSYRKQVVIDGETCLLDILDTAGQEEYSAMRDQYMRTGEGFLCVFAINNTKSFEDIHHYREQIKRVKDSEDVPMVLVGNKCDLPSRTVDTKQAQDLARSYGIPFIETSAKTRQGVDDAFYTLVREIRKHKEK
Chain of KRAS G12S (P62937 whole entry): as the sequence (P62937 whole entry) above
Chain of NRAS G12C (P01111 whole entry G12C): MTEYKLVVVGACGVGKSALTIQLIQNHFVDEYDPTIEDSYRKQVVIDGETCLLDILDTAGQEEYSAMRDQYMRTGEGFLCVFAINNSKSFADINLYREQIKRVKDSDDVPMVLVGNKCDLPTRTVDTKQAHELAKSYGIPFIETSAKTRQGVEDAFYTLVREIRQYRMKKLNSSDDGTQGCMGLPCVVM
Chain of NRAS G12C (P62937 whole entry): as the sequence (P62937 whole entry) above
Chain of KRAS G13D (P01116-2 other isoform, or with tags, fused parts or gaps G13D): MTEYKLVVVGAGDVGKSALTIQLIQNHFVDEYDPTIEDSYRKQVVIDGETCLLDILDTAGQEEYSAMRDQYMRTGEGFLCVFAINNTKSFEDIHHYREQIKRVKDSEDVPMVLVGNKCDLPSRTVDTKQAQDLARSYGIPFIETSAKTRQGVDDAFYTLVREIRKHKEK
Chain of KRAS G13D (P62937 whole entry, canonical isoform): as the sequence (P62937 whole entry) above

SMILES | IC50 [1] | IC50 [2] | IC50 [3] | EC50 ([4]; Homo sapiens, NCI-H358) [µM] | IC50 [5] | IC50 [6] | IC50 [7] | IC50 [8] | IC50 [9] | EC50 [4] [µM]
C=CC(=O)N1CC[C@H](C(=O)N(C)[C@H](C(=O)N[C@H]2Cc3cccc(c3)-c3ccc4c(c3)c(c(-c3cc(C5CCN(C)CC5)cnc3[C@H](C)OC)n4CC)CC(C)(C)COC(=O)[C@@H]3CCCN(N3)C2=O)C(C)C)C1 (atropisomer, axis not shown) [Example A515] | 1 to 10 µM | 1 to 10 µM | 1 to 10 µM | < 5 | 100 to 1000 nM | 1 to 10 µM | 10 to 100 nM | 0.1 to 1 µM | 10 to 100 nM | 
C=CC(=O)N1CC[C@H](C(=O)N(C)[C@H](C(=O)N[C@H]2Cc3nc(cs3)-c3ccc4c(c3)c(c(-c3cc(C5=CCN(C)CC5)cnc3[C@H](C)OC)n4CC)CC(C)(C)COC(=O)[C@@H]3CCCN(N3)C2=O)C(C)C)C1 (atropisomer, axis not shown) [Example A520] | 1 to 10 µM | 1 to 10 µM | 1 to 10 µM |  | 1000 to 10000 nM | 1 to 10 µM | 100 to 1000 nM | 1 to 10 µM | 100 to 1000 nM | < 5
C=CC(=O)Nc1cnc(C(=O)N(C)[C@H](C(=O)N[C@H]2Cc3cccc(c3)-c3ccc4c(c3)c(c(-c3cccnc3[C@H](C)OC)n4CC)CC(C)(C)COC(=O)[C@@H]3CCCN(N3)C2=O)C(C)C)n1C (atropisomer, axis not shown) [Example A525] | 1 to 10 µM | 1 to 10 µM | 1 to 10 µM |  | 10 to 100 nM | 1 to 10 µM | 10 to 100 nM | 1 to 10 µM | 10 to 100 nM | < 5
CCn1c(-c2cnccc2COC)c2c3cc(ccc31)-c1ccnc(c1)C[C@H](NC(=O)[C@H](C(C)C)N(C)C(=O)[C@H]1CCN(C(=O)C#CCN(C)C)C1)C(=O)N1CCC[C@H](N1)C(=O)OCC(C)(C)C2 [Example A130] | > 10 µM | > 10 µM | 1 to 10 µM | < 5 | 100 to 1000 nM | 1 to 10 µM | < 10 nM | > 10 µM | < 10 nM | 
CCn1c(-c2cncnc2)c2c3cc(ccc31)-c1cccc(c1)C[C@H](NC(=O)[C@H](C(C)C)N(C)C(=O)[C@H]1CCN(C(=O)C#CCN(C)C)C1)C(=O)N1CCC[C@H](N1)C(=O)OCC(C)(C)C2 [Example A144] | > 10 µM | > 10 µM | 1 to 10 µM | < 5 | 1000 to 10000 nM | 1 to 10 µM | 10 to 100 nM and 100 to 1000 nM | > 10 µM | 10 to 100 nM and 100 to 1000 nM | 
CCn1c(-c2cccnc2COC)c2c3cc(ccc31)-c1cc(O)cc(c1)C[C@H](NC(=O)[C@H](C(C)C)N(C)C(=O)[C@H]1CCN(C(=O)C#C[C@@H]3CCCN3C)C1)C(=O)N1CCC[C@H](N1)C(=O)OCC(C)(C)C2 [Example A196] | 1 to 10 µM and > 10 µM | 0.1 to 1 µM and > 10 µM | 0.1 to 1 µM and > 10 µM | < 5 | 10 to 100 nM and 100 to 1000 nM | 1 to 10 µM and > 10 µM | 10 to 100 nM and < 10 nM | 0.1 to 1 µM and > 10 µM | 10 to 100 nM and < 10 nM | 
CCn1c(-c2cccnc2COC)c2c3cc(ccc31)-c1cc(O)cc(c1)C[C@H](NC(=O)[C@H](C(C)C)N(C)C(=O)[C@H]1CCN(C(=O)C#CCN3[C@@H](C)COC[C@@H]3C)C1)C(=O)N1CCC[C@H](N1)C(=O)OCC(C)(C)C2 [Example A209] | 1 to 10 µM and > 10 µM | 0.1 to 1 µM and > 10 µM | 1 to 10 µM and > 10 µM | < 5 | 100 to 1000 nM and > 10000 nM | > 10 µM | 100 to 1000 nM and < 10 nM | 1 to 10 µM and > 10 µM | 10 to 100 nM and < 10 nM | 
